Data on 28 compounds can be found in patent US20230322789A1, “PYRAZOLOPYRIDAZINONE COMPOUND, AND PHARMACEUTICAL COMPOSITION AND USE THEREOF” (BroadenBio Co., Ltd., priority 2020, published 2023).

Where a name gives a salt, the structure may show the parent alone.

Chain of HPK1 (Q92918 whole entry): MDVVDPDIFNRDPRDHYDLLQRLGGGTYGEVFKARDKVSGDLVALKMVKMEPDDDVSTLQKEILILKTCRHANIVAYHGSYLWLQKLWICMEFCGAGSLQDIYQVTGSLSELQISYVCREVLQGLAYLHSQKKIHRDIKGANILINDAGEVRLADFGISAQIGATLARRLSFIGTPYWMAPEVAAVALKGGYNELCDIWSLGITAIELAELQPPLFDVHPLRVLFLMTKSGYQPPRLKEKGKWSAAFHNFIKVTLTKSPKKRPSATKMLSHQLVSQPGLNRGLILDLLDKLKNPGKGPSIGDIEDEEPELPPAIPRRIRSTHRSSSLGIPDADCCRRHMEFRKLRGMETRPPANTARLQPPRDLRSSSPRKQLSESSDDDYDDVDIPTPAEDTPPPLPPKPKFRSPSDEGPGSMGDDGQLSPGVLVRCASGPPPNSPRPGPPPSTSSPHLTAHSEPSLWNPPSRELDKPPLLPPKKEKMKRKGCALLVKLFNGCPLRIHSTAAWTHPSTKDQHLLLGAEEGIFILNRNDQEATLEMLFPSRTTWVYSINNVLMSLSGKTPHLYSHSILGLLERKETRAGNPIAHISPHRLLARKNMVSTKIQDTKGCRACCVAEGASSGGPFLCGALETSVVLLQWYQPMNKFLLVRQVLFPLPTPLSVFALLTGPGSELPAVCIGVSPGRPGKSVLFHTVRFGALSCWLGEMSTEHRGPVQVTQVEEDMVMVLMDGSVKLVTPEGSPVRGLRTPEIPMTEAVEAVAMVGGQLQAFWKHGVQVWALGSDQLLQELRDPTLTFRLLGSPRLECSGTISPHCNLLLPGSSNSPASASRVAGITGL

This test addresses HPK1 (Homo sapiens (Human), UniProt Q92918). Description: HPK1 kinase activity inhibition test (ADP-Glo, luminescence). It counts as biochemical. The note with it: HPK1 5 nM, ATP 2 μM, read-out: IC50, inhibitory effects of compounds on HPK1 kinase activity. As for the experimental part: 1. HPK1 Kinase Activity Inhibition Test
The kinase activity of HPK1 is manifested as activity of autophosphorylation and phosphorylation of downstream substrates. In the process of autophosphorylation, additional substrates are not required, and ATP is consumed to generate ADP. The amount of the product was measured by ADP-Glo reagent and luminescence method to reflect kinase activity.
Test compounds: compounds prepared in the examples of this application.
Prepare compound stock solution: dissolve the compound to be tested in 100% DMSO to make a 10 mM stock solution;
Prepare 4× Kinase Reaction Buffer:
Prepare 2×HPK1 Kinase Solution:
Dilute the stock solution of the compound to be tested by 5 times with […], make a 4-fold equal dilution in a 96-well dilution plate, add 1 μL of the compound to 49 µL of kinase reaction buffer, and shake on a microplate shaker for 20 minutes. Transfer 2 μL of […] kinase solution to 384 reaction plate, add 1 μL of the test compound to the 384 reaction plate (Greiner, 784075), centrifuge for 1 minute (1000 rpm/min), incubate at 25° C. for 10 minutes. Transfer […] of the 4×ATP mixture to a 384 reaction plate, centrifuge for 1 minute (1000 rpm/mm), and incubate at 25° C. for 60 minutes. In the reaction system, the final concentration of DMSO was […]. Transfer 4 μL of ADP-Glo to a 384 reaction plate, centrifuge for 1 minute (1000 rpm/min), and incubate at 25° C. for 40 minutes. Transfer 8 μL detection solution to a 384 reaction plate, centrifuge for 1 minute (1000 rpm/min), and incubate at 25° C. for 40 minutes. The […] signal was read using a Biotek multi-function plate reader, and the […] (half inhibitory concentration) of the compound was obtained using a four-coefficient nonlinear fitting formula.
Background: ADP-Glo first removes unused ATP, then detects ADP through luciferase.
Consider `COc1cccc(F)c1-n1nc2c(-c3ccc4c(c3)CN(CC(F)F)CC4)n[nH]c2cc1=O` [Compound 166, 3-(2-(2,2-difluoroethyl)-1,2,3,4-tetrahydroisoquinolin-7-yl)-5-(2-fluoro-6-methoxyphenyl)-1H-pyrazolo[4,3-c]pyridazin-6(5H)-one], for which the concentration for half-maximal inhibition (IC50) was in the range of 50 to 500 nM.

As for `Cc1ccncc1-n1nc2c(-c3ccc(C4=CCN(C)CC4)cc3)n[nH]c2cc1=O` [Compound 150, 3-(4-(1-methyl-1,2,3,6-tetrahydropyridin-4-yl)phenyl)-5-(4-methylpyrid-3-yl)-1H-pyrazolo[4,3-c]pyridazin-6(5H)-one], the IC50 was 500 to 2000 nM.

Regarding `COc1ccc(-n2nc3c(-c4ccc(C5CCN(C)CC5)cc4)n[nH]c3cc2=O)c(OC)c1` [Compound 26, 5-(2,4-dimethoxyphenyl)-3-(4-(1-methylpiperidin-4-yl)phenyl)-1H-pyrazolo[4,3-c]pyridazin-6(5H)-one], the IC50 was 500 to 2000 nM.

Take `Cc1cc(Cl)cc(F)c1-n1nc2c(-c3ccc(N4CCN(C)CC4)cc3)n[nH]c2cc1=O` [Compound 78, 5-(4-chloro-2-fluoro-6-methylphenyl)-3-(4-(4-methylpiperazin-1-yl)phenyl)-1H-pyrazolo[4,3-c]pyridazin-6(5H)-one]: the IC50 was in the range of 50 to 500 nM.

Turning to `Cc1ccncc1-n1nc2c(-c3ccc(N4CCN(C)CC4)cc3)n[nH]c2cc1=O` [Compound 47, 3-(4-(4-methylpiperazin-1-yl)phenyl)-5-(4-methylpyrid-3-yl)-1H-pyrazolo[4,3-c]pyridazin-6(5H)-one], the IC50 was in the range of 500 to 2000 nM.

Regarding `Cc1cccc(F)c1-n1nc2c(-c3ccc(N4CCN(CC(F)F)CC4)cc3)n[nH]c2cc1=O` [Compound 84], the half-inhibitory concentration (IC50) was 50 to 500 nM.

As for `Cc1cccc(F)c1-n1nc2c(-c3ccc4c(c3)CN(C)[C@H](CO)C4)n[nH]c2cc1=O` [Compound 176, (S)-5-(2-fluoro-6-methylphenyl)-3-(3-(hydroxymethyl)-2-methyl-1,2,3,4-tetrahydroisoquinolin-7-yl)-1H-pyrazolo[4,3-c]pyridazin-6(5H)-one], the IC50 was not above 50 nM.

Turning to `Cc1cccc(F)c1-n1nc2c(-c3ccc4c(c3)C3COC(=O)N3CC4)n[nH]c2cc1=O` (stereo not shown) [Compound 185, 9-(5-(2-fluoro-6-methylphenyl)-6-oxo-5,6-dihydro-1H-pyrazolo[4,3-c]pyridazin-3-yl)-5,6-dihydro-1H-oxazolo[4,3-a]isoquinolin-3(10bH)-one], the IC50 was in the range of 500 to 2000 nM.

With `CCc1cccc(F)c1-n1nc2c(-c3cnc(N4CCN(C)CC4)nc3)n[nH]c2cc1=O` [Compound 110, 5-(2-ethyl-6-fluorophenyl)-3-(2-(4-methylpiperazin-1-yl)pyrimidin-5-yl)-1H-pyrazolo[4,3-c]pyridazin-6(5H)-one], the IC50 was 50 to 500 nM.

In the case of `CN1CCN(c2ccc(-c3n[nH]c4cc(=O)n(-c5cccc6c5COC6)nc34)cc2)CC1` [Compound 75, 5-(1,3-dihydroisobenzofuran-4-yl)-3-(4-(4-methylpiperazin-1-yl)phenyl)-1H-pyrazolo[4,3-c]pyridazin-6(5H)-one], the IC50 is 500 to 2000 nM.

On to `CCN1CCN(c2ccc(-c3n[nH]c4cc(=O)n(-c5c(C)cccc5F)nc34)cn2)CC1` [Compound 101, 3-(6-(4-ethylpiperazin-1-yl)pyrid-3-yl)-5-(2-fluoro-6-methylphenyl)-1H-pyrazolo[4,3-c]pyridazin-6(5H)-one], for which the IC50 is not above 50 nM.

On to `Cc1cccc(F)c1-n1nc2c(-c3ccc4c(c3)CCN(C3CCN(C)CC3)C4)n[nH]c2cc1=O` [Compound 196, 5-(2-fluoro-6-methylphenyl)-3-(2-(1-methylpiperidin-4-yl)-1,2,3,4-tetrahydroisoquinolin-6-yl)-1H-pyrazolo[4,3-c]pyridazin-6(5H)-one hydrochloride], for which the IC50 lay in the range of 50 to 500 nM.

Consider `Cc1cccc(F)c1-n1nc2c(-c3ccc(N4CCN(C)CC4)cc3)n[nH]c2c(C)c1=O` [Compound 55, 5-(2-fluoro-6-methylphenyl)-7-methyl-3-(4-(4-methylpiperazin-1-yl)phenyl)-1H-pyrazolo[4,3-c]pyridazin-6(5H)-one], for which the half-inhibitory concentration (IC50) is 50 to 500 nM.

For `Cc1cccc(F)c1-n1nc2c(-c3ccc(N4CCN5C(=O)OCC5C4)cc3)n[nH]c2cc1=O` (stereo not shown) [Compound 122, 7-(4-(5-(2-fluoro-6-methylphenyl)-6-oxo-5,6-dihydro-1H-pyrazolo[4,3-c]pyridazin-3-yl)phenyl)tetrahydro-1H-oxazolo[3,4-a]pyrazin-3(5H)-one], the IC50 was not above 50 nM.

Regarding `COc1cc(C)c(-n2nc3c(-c4ccc(N5CCN(C)CC5)cc4)n[nH]c3cc2=O)cn1` [Compound 149], the IC50 lay in the range of 500 to 2000 nM.

With `Cc1cccc(F)c1-n1nc2c(-c3ccc4c(c3)CCN(C3CCOCC3)C4)n[nH]c2cc1=O` [Compound 195, 5-(2-fluoro-6-methylphenyl)-3-(2-(tetrahydro-2H-pyran-4-yl)-1,2,3,4-tetrahydroisoquinolin-6-yl)-1H-pyrazolo[4,3-c]pyridazin-6(5H)-one], the IC50 fell in the range of 50 to 500 nM.

Take `Cc1cccc(F)c1-n1nc2c(-c3ccc4c(c3)C(CN)N(C)CC4)n[nH]c2cc1=O` (stereo not shown) [Compound 186, 3-(1-(aminomethyl)-2-methyl-1,2,3,4-tetrahydroisoquinolin-7-yl)-5-(2-fluoro-6-methylphenyl)-1H-pyrazolo[4,3-c]pyridazin-6(5H)-one hydrochloride]: the IC50 lay in the range of 500 to 2000 nM.

In the case of `Cc1cccc(F)c1-n1nc2c(-c3cnn(C4CCN(C)CC4)c3)n[nH]c2cc1=O` [Compound 19, 5-(2-fluoro-6-methylphenyl)-3-(1-(1-methylpiperidin-4-yl)-1H-pyrazol-4-yl)-1H-pyrazolo[4,3-c]pyridazin-6(5H)-one], the IC50 fell in the range of 500 to 2000 nM.

With `Cc1cccc(F)c1-n1nc2c(-c3ccc4c(c3)CN(C)C(=O)C4)n[nH]c2cc1=O` [Compound 182, 7-(5-(2-fluoro-6-methylphenyl)-6-oxo-5,6-dihydro-1H-pyrazolo[4,3-c]pyridazin-3-yl)-2-methyl-1,2-dihydroisoquinolin-3(4H)-one], the IC50 was in the range of 50 to 500 nM.

On to `Cc1cccc(F)c1-n1nc2c(-c3ccc(N4CCN(C)CC4=O)cc3)n[nH]c2cc1=O` [Compound 12, 5-(2-fluoro-6-methylphenyl)-3-(4-(4-methyl-2-oxopiperazin-1-yl)phenyl)-1H-pyrazolo[4,3-c]pyridazin-6(5H)-one], for which the IC50 lay in the range of 500 to 2000 nM.

Turning to `Cc1cccc(F)c1-n1nc2c(-c3ccc(N4CCS(=O)(=O)CC4)nc3)n[nH]c2cc1=O` [Compound 104, 3-(6-(1,1-dioxidothiomorpholino)pyrid-3-yl)-5-(2-fluoro-6-methylphenyl)-1H-pyrazolo[4,3-c]pyridazin-6(5H)-one], the IC50 was in the range of 50 to 500 nM.

As to `Cc1cccc(F)c1-n1nc2c(-c3ccc4c(c3)CN(C3CCOCC3)CC4)n[nH]c2cc1=O` [Compound 167, 5-(2-fluoro-6-methylphenyl)-3-(2-(tetrahydro-2H-pyran-4-yl)-1,2,3,4-tetrahydroisoquinolin-7-yl)-1H-pyrazolo[4,3-c]pyridazin-6(5H)-one], the IC50 lay within 50 to 500 nM.

For the compound `Cc1cccc(F)c1-n1nc2c(-c3ccc4c(c3)CN(C)[C@@H](CO)C4)n[nH]c2cc1=O` [Compound 179, (R)-5-(2-fluoro-6-methylphenyl)-3-(3-(hydroxymethyl)-2-methyl-1,2,3,4-tetrahydroisoquinolin-7-yl)-1H-pyrazolo[4,3-c]pyridazin-6(5H)-one], the IC50 lay within 50 to 500 nM.

For `Cc1cccc(F)c1-n1nc2c(-c3cccc(N4CCN(C)CC4)c3F)n[nH]c2cc1=O` [Compound 207, 3-(2-fluoro-3-(4-methylpiperazin-1-yl)phenyl)-5-(2-fluoro-6-methylphenyl)-1H-pyrazolo[4,3-c]pyridazin-6(5H)-one], the IC50 lay in the range of 500 to 2000 nM.

On to `Cc1cccc(F)c1-n1nc2c(-c3ccc4c(c3F)CN(C)CC4)n[nH]c2cc1=O` [Compound 188, 3-(8-fluoro-2-methyl-1,2,3,4-tetrahydroisoquinolin-7-yl)-5-(2-fluoro-6-methylphenyl)-1H-pyrazolo[4,3-c]pyridazin-6(5H)-one], for which the IC50 fell in the range of 50 to 500 nM.

Turning to `Cc1cccc(F)c1-n1nc2c(-c3ccc4c(c3)CN(C3CCN(C)CC3)CC4)n[nH]c2cc1=O` [Compound 168, 5-(2-fluoro-6-methylphenyl)-3-(2-(1-methylpiperidin-4-yl)-1,2,3,4-tetrahydroisoquinolin-7-yl)-1H-pyrazolo[4,3-c]pyridazin-6(5H)-one], the IC50 was in the range of 50 to 500 nM.

Turning to `Cc1cccc(F)c1-n1nc2c(-c3ccc4c(c3)CN(C)C(C)(C)C4)n[nH]c2cc1=O` [Compound 178, 5-(2-fluoro-6-methylphenyl)-3-(2,3,3-trimethyl-1,2,3,4-tetrahydroisoquinolin-7-yl)-1H-pyrazolo[4,3-c]pyridazin-6(5H)-one], the IC50 fell in the range of 50 to 500 nM.

Take `COc1cccc(F)c1-n1nc2c(-c3ccc(N4CCN5C(=O)CN(C)CC5C4)cc3)n[nH]c2cc1=O` (stereo not shown) [Compound 132, 8-(4-(5-(2-fluoro-6-methoxyphenyl)-6-oxo-5,6-dihydro-1H-pyrazolo[4,3-c]pyridazin-3-yl)phenyl)-2-methylhexahydro-1H-pyrazino[1,2-a]pyrazin-4(6H)-one]: the IC50 is not above 50 nM.

By IC50 is commonly meant the point on the concentration scale where inhibition reaches its midpoint.
